Measured values: US20240299504A1, “COMPOSITIONS AND METHODS FOR TREATING ALZHEIMERS DISEASE” (priority 2023, published 2024)

What was measured:
5×FAD astrocytes [1] = experiment: RT-qPCR of cytokines and chemokines in cultured astrocytes; type: cell-based, mouse; details: cultured 5×FAD astrocytes, 100 ng/ml, 24 h
Method: (§1) Total RNA was extracted from cortex, hippocampus, or cultured astrocytes using a TRizol reagent (Invitrogen, cat #15596-026, Carlsbad, CA, USA) as previously described. Purified RNA (1-5 μg) was used for cDNA synthesis with the Revert Aid First Strand cDNA Synthesis Kit (Thermo Scientific, cat #K1621, Waltham, MA, USA). The cDNA products were subjected to subsequent quantitative PCR (qPCR) using the QuantiFast SYBR Green PCR Kit (QIA-GEN, cat #204057, Hilden, Germany) with a qPCR System (StepOne Plus). Each sample was repeated at least 3 times, and the mRNA level was normalized to GAPDH using the 2^−ΔΔCt method.
(§2) Astrocyte culture was performed according to the standard protocol with some modifications as described in previous literature. In brief, the cerebral cortex and hippocampus of postnatal day 3 (P3) female pups were dissected under a stereomicroscope and placed in ice-cold calcium- and magnesium-free HBSS (Hanks Balanced Salt Solution). The tissues were digested with 2.5% trypsin-EDTA, 3 ml for each mouse, at 37° C. for 20 min with shaking slightly every 5 min. The digested tissue was blown into single-cell suspension, filtered through a 70-mm filter mesh, pelleted at 900×g for 5 min, and resuspended in growth medium (DMEM plus 10% FBS), which was incubated at 37° C. with 5% CO2. […]

[2] = test system: serum inflammatory cytokines; experiment: Mouse serum cytokine array; type: in vivo
Method: (§3) Parathyroid hormone (human) was purchased from TOCRIS Bioscience (Cat #3011/1, Abingdon, United Kingdom). WT or 5×FAD mice (both male and female) were treated with PTH1-34 intermittently [once daily injection of hPTH1-34 (50 μg/Kg) or vehicle (0.9% sodium chloride) (as a control) by subcutaneous injection, starting at 2-MO, 5 days per week] as described previously. Mice were then subjected to behavioral tests and sacrificed for examinations of their bone and brain phenotypes at the indicated ages.
Serum samples from 5×FAD, Tg2576, and their WT control female mice (6˜MO) were collected and used for serum cytokine detection. Cytokines were measured with Mouse Cytokine Array Panel A (R&D Systems, cat #ARY006, Minneapolis, MN, USA). Briefly, the mixture of serum and the biotinylated detection antibodies cocktail is incubated with a Mouse Cytokine Array membrane. Any cytokine/detection antibody complex present was bound on the membrane by its cognate immobilized capture antibody. After washing off the unbound protein, streptavidin-horseradish peroxidase and chemiluminescent detection reagents were added to generate light signals. The light produced at each spot is proportional to the amount of cytokine binding.

5×FAD astrocytes [3] = experiment: Senescence markers in cultured astrocytes (RT-PCR, SA-β-gal staining); type: cell-based, mouse; details: cultured 5×FAD astrocytes, 100 ng/ml, 24 h
Method: as §1
as §2, with “min.” for “min. The digested tissue was blown into single-cell suspension, filtered through a 70-mm filter mesh, pelleted at 900×g for 5 min, and resuspended in growth medium (DMEM plus 10% FBS), which was incubated at 37° C. with 5% CO2.”
SA-β-gal staining of cultured astrocytes was performed as previously reported. […] The SA-β-gal intensity was quantified by the NIH ImageJ software.

p16Ink4a and p53 = experiment: Senescence markers in hippocampus (RT-PCR, Western blot); type: in vivo, mouse
Method: as §3
Total proteins from cortex, hippocampus, or cultured astrocytes were extracted using RIPA lysis buffer [50 mM Tris-HCl (pH7.5), 150 mM NaCl, 1 mM EDTA, 1% v/v NP-40, 0.1% SDS, 1% sodium deoxycholate supplemented with Protease Inhibitor Cocktail (Roche) and 1 mM PMSF] and analyzed by Western Blot. Lysates were cleared by centrifugation at 12,000 g for 15 min at 4° C. to remove debris and to obtain homogenates. Homogenates samples were resolved by SDS-PAGE (8˜15%) gels and then electroblotted onto nitrocellulose membranes (Cat #1620112, Bio-Rad Laboratories). […] After washing with TBST 3 times, antibody reactivity was detected by the Enhanced Chemiluminescence (ECL) detection system (Amersham Biosciences). Band density of proteins was normalized in relation to loading control and analyzed using NIH ImageJ software. […]

IBA1+ microglia = experiment: Co-immunostaining ThioS/IBA1/LPL, microglial cells; type: in vivo, mouse; details: 6-MO 5×FAD female mice vs Veh
Method: as §3
(§4) DAPI was used for nucleus staining.

GFAP+ astrocytes = experiment: Co-immunostaining ThioS/GFAP, reactive astrocytes; type: in vivo, mouse
Method: as §3, §4

CC[C@H](C)[C@H](NC(=O)[C@H](CCC(=O)O)NC(=O)[C@H](CO)NC(=O)[C@@H](NC(=O)[C@@H](N)CO)C(C)C)C(=O)N[C@@H](CCC(N)=O)C(=O)N[C@@H](CC(C)C)C(=O)N[C@@H](CCSC)C(=O)N[C@@H](Cc1cnc[nH]1)C(=O)N[C@@H](CC(N)=O)C(=O)N[C@@H](CC(C)C)C(=O)NCC(=O)N[C@@H](CCCCN)C(=O)N[C@@H](Cc1cnc[nH]1)C(=O)N[C@@H](CC(C)C)C(=O)N[C@@H](CC(N)=O)C(=O)N[C@@H](CO)C(=O)N[C@@H](CCSC)C(=O)N[C@@H](CCC(=O)O)C(=O)N[C@@H](CCCN=C(N)N)C(=O)N[C@H](C(=O)N[C@@H](CCC(=O)O)C(=O)N[C@@H](Cc1c[nH]c2ccccc12)C(=O)N[C@@H](CC(C)C)C(=O)N[C@@H](CCCN=C(N)N)C(=O)N[C@@H](CCCCN)C(=O)N[C@@H](CCCCN)C(=O)N[C@@H](CC(C)C)C(=O)N[C@@H](CCC(N)=O)C(=O)N[C@@H](CC(=O)O)C(=O)N[C@H](C(=O)N[C@@H](Cc1cnc[nH]1)C(=O)N[C@@H](CC(N)=O)C(=O)N[C@@H](Cc1ccccc1)C(=O)O)C(C)C)C(C)C [PTH1-34]
expression of cytokines or chemokines (TNF-α, TGF-β1, CCL5, GM-CSF, RANK) (5×FAD astrocytes [1]): Nearly all these factors (except GM CSF) were reduced
elevated serum factors (IL-1rα, IL-2, IL-3, IL-4, IL-10, CXCL9, CCL3) ([2]; 6-MO 5×FAD female mice): all reduced
serum inflammation-associated factors IL1β, TNFα, TREM-1, CCL11, CCL5 ([2]; 6-MO 5×FAD female mice): reduced
serum factor CCL4 ([2]; 6-MO 5×FAD female mice (CCL4 decreased in 5×FAD)): restored
SA-β-gal+ astrocytes (5×FAD astrocytes [3]): attenuated
p53 expression (RT-PCR) (5×FAD astrocytes [3]): diminished
p53 protein (Western blot) (p16Ink4a and p53; hippocampus homogenates, 6-MO female 5×FAD mice): reduced
p16Ink4a and p53 transcripts (RT-PCR) (p16Ink4a and p53; hippocampus, 6-MO 5×FAD female mice): great reduction
Aβ associated LPL+IBA1+ microglial cells (DAM) (IBA1+ microglia): little to no difference
IBA1+ cell density and fluorescence intensity in regions without Aβ plaques (IBA1+ microglia): comparable
ThioS+ Aβ plaque associated IBA1 fluorescence (IBA1+ microglia): unchanged
overall IBA1 fluorescence intensity (IBA1+ microglia; cortex and hippocampus): lower in PTH1-34 treated 5×FAD cortex and hippocampus than that of Veh controls
inhibition of glial cell activation (GFAP, IBA1), by sex (GFAP+ astrocytes; female and male 5×FAD mice, 6-MO): detectable in both female and male 5×FAD mice
GFAP+ fluorescence intensity (GFAP+ astrocytes; layers of cortex (except layer II/III) and DG region of hippocampus, ~6 MO female 5×FAD vs Veh): lower in PTH1-34 treated 5×FAD mice than that of Veh controls
effect on glial cells (GFAP, IBA1) (GFAP+ astrocytes; wild-type (WT) female mice, 6-MO): little effect
plaque-associated GFAP fluorescence (GFAP+ astrocytes; ~6 MO female 5×FAD cortex and hippocampus vs Veh): diminished
